# Results reported in patent US20040121965A1, “Method of treating resistant tumors” (Wyeth Holdings Corporation, priority 2002, published 2004).
# “And” between values parts separate entries of the source, which are not always exact repeats. Equal values may be shown once. Read-outs that look alike come from different tables or passages of the source. Marks after values point to notes of the source that are not given here.
# Columns and labels:
# tumor cell lines = assay: cells; type: cell-based
# Source text: (§1) Cells lines with previously known mechanisms of resistance. […] Res. 8: 207-218,1996); KB-3-1 (parental derived from an epidermoid carcinoma), KB-8.5, KB-V1 (Akiyama S-I, Fojo A, Hanover J A, Pastan I, Gottesman M M. Isolation and genetic characterization of human KB cell lines resistant to multiple drugs. Somatic Cell Mol. Gen., 11: 117-126,1985; Shen D-W, Cardarelli C, Hwang J, Cornwell M, Richert N, Ishii S, Pastan I, Gottesman MM. […] J. Biol. Chem., 261: 7762-7770, 1986); and HL-60 (parental derived from human leukemia) and HL60/AR (McGrath T., Center M. S. Adriamycin resistance in HL60 cells in the absence of detectable P-glycoprotein. Biochem. Res. Commun., 145:1171-1176,1987); A549 and A549.EpoB40 (He L., Yang C.-P.H., Horwitz S. B. Mutations in p-tubulin map to domains involved in regulation of microtubule stability in epothilone-resistant cell lines. Molecular Cancer Therapeutics. 1: 3-10, 2001). HCT-15 human colon carcinoma and DLD-1 human colon carcinoma are obtained from American Tissue Culture Collection. The MX-1W carcinoma is a Wyeth variant orginally obtained as MX-1 breast carcinoma from the National Cancer Institute. Cell lines selected for resistance to Representative Example 129. KB-3-1 cells are selected for resistance to Example 129 by chronically exposing cells to increasing concentrations of Example 129.
# (§2) 2.2. Cell Survival Assay: Standard Pharmacological Test Procedure. The concentration of candidate inhibitor required to inhibit 50% of cell growth (IC50) is done according to previously reported methods. […] Compounds are serially diluted into media as 2× stocks and 100 μl added to cells in duplicate. Compounds are incubated with cells for 3 days. At the end of the incubation period the sulforhodamine B (SRB) assay, which measures protein content as an assessment of cell survival, is performed as described previously (Skehan P, Storeng R, Scudiero D, Monks A, McMahon J, Vistica D, Warren J T, Bokesch H, Kenney S, Boyd MR. New calorimetric cytotoxicity assay for anticancer-drug screening. J Natl Cancer Inst 1990 Jul 4;82(13):1107-12) with some modification as follows. For KB-3-1 cells with 20% FCS, media is gently decanted and replaced with 200 μl of serum-free media mixed with cold 50% TCA for a final concentration of 10% TCA. The plates are incubated for 1 hr at 4° C., followed by washing 5 times in cold distilled water, then air dried overnight. The fixed cells are stained for 10 min with 80 μl of 0.04% SRB solution prepared in 1% glacial acetic acid. Stain is discarded and plates washed 5 times in 1% glacial acetic acid, then air-dried until completely dry. Stained cell product is dissolved in 150 μl of 10 mM Trizma Base and placed on a shaker for 20 minutes until fully dissolved. Absorbance is read on a Victor V multi-label plate reader (Perkin Elmer, Gaithersburg, Md.).
# Colo205 = assay: Cell survival assay (SRB), Colo205; type: cell-based; settings: Homo sapiens, COLO 205, 72 h
# Description: (§3) 2.2. Cell Survival Assay: Standard Pharmacological Test Procedure. […] Compounds are incubated with cells for 3 days.
# HT-29 = assay: Cell survival assay (SRB), HT-29; type: cell-based; settings: Homo sapiens
# Description: as §3
# CCRF-CEM = assay: Cell survival assay (MTS), CCRF-CEM; type: cell-based; settings: Homo sapiens, 72 h
# Description: as §3
# NCI-H1299 = assay: Cell survival assay (SRB), NCI-H1299; type: cell-based; settings: Homo sapiens
# Description: as §3
# SK-MES-1 = assay: Cell survival assay (SRB), SK-MES-1; type: cell-based; settings: Homo sapiens
# Description: as §3
# S1-M1-3.2 (MXR) = assay: Cell survival assay, S1-M1-3.2 (MXR); type: cell-based, human; settings: for IC50: Homo sapiens, read-out: S1-M1-3.2 (MXR) IC50, nM (N)
# Source text: as §1, §2
# J. Cell Science,113: 2011-2021, 2000). It was unknown whether the hemiasterlin family of peptides interact with these drug pumps.
# [1] = tested on: Human Epidermoid Carcinoma KB-3-1; assay: Growth of tumors in nude mice, KB-3-1 xenograft; type: in vivo; settings: for % T/C on day 7 / % T/C on day 14 / % T/C on day 21: KB-3-1, days 1,5,9
# Description: 2.4. Growth of Tumors in Nude Mice.
# In these experiments, xenografts are implanted subcutaneously into the flanks of nude mice. […] Relative tumor mass compared to controls are assessed during the 21-day post-staging period.
# Groups of 5 female nu/nu mice are injected with 1.5×10^6 KB-3-1 (A) or Lox cells (B). […] Relative tumor growth is determined during the experiment and % T/C calculated. Statistical analyses are Student's t-test of treated time points vs. vehicle (*, P<0.05; **, P<0.01)
# KB-8-5 (MDR1+) = assay: Cell survival assay (SRB), KB-8-5 (MDR1+); settings: for IC50: Homo sapiens
# KB-V1 (MDR1++) = assay: Cell survival assay (SRB), KB-V1 (MDR1++); settings: for IC50: Homo sapiens
# [2] = tested on: KB-PTX-15+099 tumor xenografts; assay: Growth of tumors in nude mice, KB-PTX-15+099 xenograft; settings: days 1,8,15
# [3] = HL60/AR (MRP1) or S1-M1-3.2 (MXR)
compound,measurement,setting,value
"CN[C@H](C(=O)N[C@H](C(=O)N(C)[C@H](/C=C(\C)C(=O)O)C(C)C)C(C)(C)C)C(C)(C)c1ccccc1 [Example 129, N,β,β-trimethyl-L-phenylalanyl-N^1-[(1S,2E)-3-carboxy-1-isopropylbut-2-enyl]-N^1,3-dimethyl-L-valinamide]",IC50,"tumor cell lines; 72 h, read-out: AVERAGE IC50 (nM), average over the panel of tumor cell lines of Table 1; 3 days",2.1 ± 1.7 nM
same,resistance detected in cells over-expressing MRP1 or MXR,tumor cell lines; [3],no resistance
same,IC50,"tumor cell lines; read-out: IC50 in cell lines expressing moderate to very high MDR1, MX-1W, NCI-H1299, DLD-1, HCT-15",1.1 to 6.8 nM
same,IC50,"tumor cell lines; read-out: IC50 in cell lines with undetectable or low level MDR1, NCI-H838, A549, HT-29, HCT-116, KB-3-1",0.7 to 1.6 nM
same,IC50,"tumor cell lines; read-out: mean IC50, 34 tumor cell lines (Example 129); N=31 cell lines (paclitaxel)",2.1 ± 1.7 nM
same,IC50,"tumor cell lines; read-out: median IC50, 34 tumor cell lines (Example 129); N=31 cell lines (paclitaxel)",1.7 nM
same,IC50,"tumor cell lines; read-out: range of IC50, 34 tumor cell lines (Example 129); N=31 cell lines (paclitaxel)",0.2 to 7.3 nM
same,IC50,tumor cell lines; read-out: range of IC50; 34 tumor cell lines (Example 129); N=31 cell lines (paclitaxel),0.2 to 7 nM
same,IC50,Colo205,1.5 ± 0.6 nM
same,IC50,"HT-29; HT-29, 72 h",1.6 nM
same,IC50,CCRF-CEM,0.2 ± 0.03 nM
same,IC50,"NCI-H1299; NCI-H1299, 72 h",6.8 ± 6.1 nM
same,IC50,"SK-MES-1; SK-MES-1, 72 h",2.6 nM
same,IC50,S1-M1-3.2 (MXR),4.8 ± 2.1 nM
same,"RR, relative resistance",S1-M1-3.2 (MXR); IC50 S1-M1-3.2 / IC50 S1,1.3
same,growth inhibition of epidermoid KB-3-1 tumors,"[1]; IV in saline, days 1, 5, 9 post-staging, 0.5-1 mg/kg, tumors 1-2 gram",> 95%
same,% T/C on day 7,[1]; Example 129 1.6 mg/kg IV,10** %
same,% T/C on day 14,[1]; Example 129 1.6 mg/kg IV,1** %
same,% T/C on day 21,[1]; Example 129 1.6 mg/kg IV,23* %
same,"RR, relative resistance",KB-8-5 (MDR1+),2.4
same,Ratio KB85/KB,KB-8-5 (MDR1+),2.4
same,resistance of KB-8-5 cells,KB-8-5 (MDR1+),2.4-5 fold
same,IC50,"KB-8-5 (MDR1+); MDR1, 72 h",1.9 nM
same,IC50,"KB-8-5 (MDR1+); MDR1, 72 h, read-out: IC50 + 5.0 uM MDR-1 inhibitor",1.4 nM
same,IC50,"KB-8-5 (MDR1+); MDR1, read-out: KB-8-5 (MDR1+) IC50, nM (N)",2.3 nM
same,"RR, relative resistance",KB-V1 (MDR1++),81
same,Ratio KBV1/KB,KB-V1 (MDR1++),80.6
same,resistance of KB-V1 cells,KB-V1 (MDR1++),81 fold
same,IC50,KB-V1 (MDR1++); 72 h,57 nM
same,IC50,"KB-V1 (MDR1++); 72 h, read-out: IC50 + 5.0 uM MDR-1 inhibitor",1.3 nM
same,IC50,"KB-V1 (MDR1++); read-out: KB-V1 (MDR1++) IC50, nM (N)",77.4 nM
same,% T/C on day 6,[2]; Example 129 1.25 mg/kg IV,32** %
same,% T/C on day 9,[2]; Example 129 1.25 mg/kg IV,19** %
same,% T/C on day 13,[2]; Example 129 1.25 mg/kg IV,9** %
same,% T/C on day 16,[2]; Example 129 1.25 mg/kg IV,10** %
same,% T/C on day 20,[2]; Example 129 1.25 mg/kg IV,7** %
"CC(=O)O[C@H]1C(=O)[C@@]2(C)[C@H]([C@H](OC(=O)c3ccccc3)[C@]3(O)C[C@H](OC(=O)[C@H](O)[C@@H](NC(=O)c4ccccc4)c4ccccc4)C(C)=C1C3(C)C)[C@]1(OC(C)=O)CO[C@@H]1C[C@@H]2O [paclitaxel, reference compound]",IC50,tumor cell lines; 34 tumor cell lines (Example 129); N=31 cell lines (paclitaxel); read-out: mean IC50,80.2 nM
same,IC50,tumor cell lines; 34 tumor cell lines (Example 129); N=31 cell lines (paclitaxel); read-out: median IC50,9 nM
same,IC50,tumor cell lines; 34 tumor cell lines (Example 129); N=31 cell lines (paclitaxel); read-out: range of IC50,1.8 to 1590 nM
same,IC50,"tumor cell lines; 72 h, average over the panel of tumor cell lines of Table 1; 3 days; read-out: AVERAGE IC50",80.2 nM
same,resistance detected in cells over-expressing MRP1 or MXR,tumor cell lines; [3],no resistance
same,IC50,"tumor cell lines; MX-1W, NCI-H1299, DLD-1, HCT-15; read-out: IC50 in cell lines expressing moderate to very high MDR1",15 to 438 nM
same,IC50,"tumor cell lines; NCI-H838, A549, HT-29, HCT-116, KB-3-1; read-out: IC50 in cell lines with undetectable or low level MDR1",3.9 to 8.8 nM
same,IC50,"Colo205; Colo205, colon, 3 days, SRB staining, read-out: IC50",6.9 ± 2.3 nM
same,IC50,"HT-29; 72 h, HT-29, colon, 3 days, SRB staining, read-out: IC50",6.1 nM
same,IC50,"CCRF-CEM; leukemia, 3 days, MTS assay, read-out: IC50",3.3 ± 1.3 nM
same,IC50,"NCI-H1299; 72 h, NCI-H1299, NSCLC, 3 days, SRB staining, read-out: IC50",37.7 ± 12.6 nM
same,IC50,"SK-MES-1; 72 h, SK-MES-1, NSCLC, 3 days, SRB staining, read-out: IC50",29 nM
same,IC50,"S1-M1-3.2 (MXR); S1-M1-3.2, MXR over-expression, Table 5",108 ± 88 nM
same,% T/C on day 7,[1]; paclitaxel 60 mg/kg IV,5** %
same,% T/C on day 14,[1]; paclitaxel 60 mg/kg IV,0** %
same,% T/C on day 21,[1]; paclitaxel 60 mg/kg IV,0** %
same,IC50,"KB-8-5 (MDR1+); MDR1, 72 h, KB-85, 3 days, SRB, vehicle (DMSO), no MDR-1 inhibitor, mean of two experiments",41.9 nM
same,IC50,"KB-8-5 (MDR1+); MDR1, 72 h, read-out: IC50 + 5.0 uM MDR-1 inhibitor, KB-85, 3 days, SRB, + 5.0 uM MDR-1 inhibitor (heptanenitrile), mean of two experiments",4.4 nM
same,IC50,"KB-8-5 (MDR1+); MDR1, read-out: KB-8-5 (MDR1+) IC50, nM (N), KB-8-5, moderate MDR1 expression, Table 3",63.3 ± 29 nM
same,resistance of KB-8-5 cells,"KB-8-5 (MDR1+); KB-8-5 (KB-85) vs KB-3-1, in vitro",19 fold and 14 fold
same,IC50,"KB-V1 (MDR1++); 72 h, KB-V1, 3 days, SRB, vehicle (DMSO), no MDR-1 inhibitor, mean of two experiments",> 3000 nM
same,IC50,"KB-V1 (MDR1++); 72 h, read-out: IC50 + 5.0 uM MDR-1 inhibitor, KB-V1, 3 days, SRB, + 5.0 uM MDR-1 inhibitor (heptanenitrile), mean of two experiments",15 nM
same,IC50,"KB-V1 (MDR1++); read-out: KB-V1 (MDR1++) IC50, nM (N), KB-V1, high MDR1 expression, Table 3",5480 ± 2780 nM
same,% T/C on day 6,[2]; paclitaxel 60 mg/kg IV,103%
same,% T/C on day 9,[2]; paclitaxel 60 mg/kg IV,93%
same,% T/C on day 13,[2]; paclitaxel 60 mg/kg IV,89%
same,% T/C on day 16,[2]; paclitaxel 60 mg/kg IV,87%
same,% T/C on day 20,[2]; paclitaxel 60 mg/kg IV,90%
